Tests used:
[1] = tested on: BAD_0569/BAD_0568-CcaR TCS; conditions: E. coli expressing BAD_0569 and BAD_0568-CcaR, sfGFP from PcpcG2; panel of over 40 gut chemicals
Description: Briefly, the wild type BAD_0569 SK of Bifidobacterium adolescent was expressed in E. coli. A modified cognate response regulator BAD_0568 was simultaneously expressed in E. coli, wherein the native DBD from the Bifidobacterium adolescentis RR was replaced with that of the DBD from the well-characterized OmpR-PhoB family RR CcaR. When phosphorylated, native CcaR activates transcription from PcpcG2, or its derivatives. A superfolder GFP reporter gene (a.k.a. GFP) was expressed from PcpcG2 in the same E. coli. Anydrotetracyline (aTc) induces expression of the BAD_0568-CcaR hybrid, which activates PcpcG2 transcription and thus GFP expression.
We then tested E. coli expressing the hybrid BAD_0569/8 TCS (i.e. BAD_0569 and BAD_0568-CcaR with sfGFP expressed from PcpcG2) in the presence of over 40 chemicals previously found to be enriched in the large intestines of germ-free mice made to carry gut bacteria of obese humans, but not found to be enriched in those mice carrying the gut bacteria of their lean twins.

[2] = tested on: NarL / PdcuS promoter; conditions: PdcuS promoter repressed by phosphorylated NarL, sfGFP; cited from earlier work

Structure (SMILES)	response of rewired BAD_0569/8 TCS (sfGFP reporter) to the chemical [1]	sensitivity of the sensor [2]
CSCC[C@H](N)C(=O)O [methionine]	largest response	–
O=[N+]([O-])O [nitrate]	–	The sensitivity of the sensor is in the sub-mM to mM range for nitrate.
